The results in this text go back to ChEMBL document CHEMBL1201862, “PubChem BioAssay data set” (2004).

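Tested at 5 concentrations; 48 h exposure; 96-well plates; endpoints linearly interpolated, else capped at highest concentration. The concentration for 50% growth inhibition is given as GI50.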 Activity calls are given as the source filed them. No stated cut-off is given here; in the data, active = GI50 up to about 1.1 µM and inactive = higher.

Common to all, as to assay: NCI-60 cell line screen, 48 h
Test [1] deals with NCI/ADR-RES.
In test [2] the test system is T47D.
In test [3] the test system is TK-10.
In test [4] the test system is IGROV-1.
Test [5] concerns DU-145.
Test [6] relates to SK-MEL-5.
Test [7] relates to UACC-62.
Test [8] has as its system SW-620.
Test [9] relates to Hs-578T.
Test [10] concerns RPMI-8226.
Test [11] has as its system HL-60.
Test [12] relates to OVCAR-5.
Test [13] concerns HCT-15.
Test [14] deals with COLO 205.
The test system of test [15] is OVCAR-3.
The subject of test [16] is SNB-19.
Test [17] relates to SK-MEL-2.
Test [18] relates to PC-3.
In test [19] the test system is NCI-H226.

As for `N=c1oc2cc(O)ccc2cc1C(=O)Nc1ccccn1`, the GI50 in test [1] is 48.8 µM (inactive); in test [2] it was 32.7 µM (inactive); in test [3], 41.9 µM (inactive); in [4] it was 44.9 µM (inactive); in test [5], 25.4 µM (inactive); in test [6], 42.3 µM (inactive). Further, the GI50 is 32.4 µM (inactive) in test [7]; 77.1 µM (inactive) in [8]; > 100 µM (inactive) in test [9]; 33.7 µM (inactive) in test [10]; 30.5 µM (inactive) in test [11]; > 100 µM (inactive) in [12]. Moreover, the GI50 in test [13] is 51.5 µM; in test [14], 14 µM (inactive); in [15], 72.4 µM (inactive); in test [16], 92.9 µM (inactive); in [17] it was 28.8 µM (inactive); in test [18] it was 40.1 µM (inactive). For the same compound, the GI50 in test [19] was 90.6 µM (inactive).

`Cc1ccc2nc(N/N=C/c3ccc(C)s3)cc(C)c2c1`: the GI50 in [1] is 12.3 µM (inactive); in test [2], 7.91 µM (inactive); in [3], 8.97 µM (inactive); in test [4], 6.87 µM (inactive); in [5] it was 11 µM (inactive); in test [6], 4.56 µM (inactive). Moreover, the GI50 is 10.6 µM (inactive) in test [7]; 6.1 µM (inactive) in test [8]; 15.2 µM (inactive) in test [9]; 3.61 µM (inactive) in test [10]; 4.71 µM (inactive) in test [11]; 10.1 µM (inactive) in test [12]. The GI50 in test [13] is 4.52 µM; in test [14] it was 3.79 µM (inactive); in [15], 6.24 µM (inactive); in test [16] it was 12.9 µM (inactive); in test [17], 19 µM (inactive); in [18], 11.8 µM (inactive). The GI50 in [19] was 10.1 µM (inactive).

On to `Cc1cc(S(=O)(=O)N/C(=C(\C#N)C(=O)c2ccccc2)[n+]2ccc(N(C)C)cc2)c([S-])cc1Cl`, for which the GI50 was > 100 µM (inactive) in test [1]; > 100 µM (inactive) in [2]; 53.6 µM (inactive) in test [3]; 88.3 µM (inactive) in [4]; > 10 µM (inactive) in test [5]; > 100 µM (inactive) in test [6]. In addition, the GI50 in test [7] is > 100 µM (inactive); in [9], > 100 µM (inactive); in [10] it was > 100 µM (inactive); in [11], > 100 µM (inactive); in [12], > 100 µM (inactive); in [13], over 100 µM. For the same compound, the GI50 in [14] was > 100 µM (inactive); in test [15], > 100 µM (inactive); in test [16], > 100 µM (inactive); in test [17], 83 µM (inactive); in test [18] it was > 100 µM (inactive); in [19], > 100 µM (inactive).

Turning to `COC(=O)C1(C)CC2C(C)(CCC3(C)C4=CC=C5C(=CC(=O)C(O)=C5C)C4(C)CCC23C)CC1O` (configuration not stated), the GI50 in [1] was 1.06 µM (active); in [2] it was 0.495 µM (active); in test [3], 0.624 µM (active); in test [4] it was 0.331 µM (active); in test [5], 1.36 µM (inactive); in [6] it was 1.66 µM (inactive). Further, the GI50 was 0.962 µM (active) in test [7]; 0.405 µM (active) in test [8]; 1.07 µM (active) in test [9]; 0.283 µM (active) in test [10]; 0.216 µM (active) in [11]; 1.73 µM (inactive) in [12]. Besides, the GI50 was 0.334 µM in test [13]; 0.627 µM (active) in test [14]; 0.774 µM (active) in [15]; 1.59 µM (inactive) in [16]; 1.68 µM (inactive) in [17]; 1.13 µM (inactive) in test [18]. Besides, in [19], the GI50 was 2.12 µM (inactive).

In the case of `O=CC(=C(I)I)c1ccccc1`, the GI50 was 14.6 µM (inactive) in test [1]; 3.55 µM (inactive) in test [2]; 2.45 µM (inactive) in test [3]; 4.06 µM (inactive) in test [4]; 7.45 µM (inactive) in [5]; 4.07 µM (inactive) in test [6]. Further, the GI50 was 6.08 µM (inactive) in [7]; 0.728 µM (active) in test [8]; 2.83 µM (inactive) in [9]; 0.977 µM (active) in test [10]; 0.0635 µM (active) in test [11]; 6.75 µM (inactive) in test [12]. Moreover, the GI50 is 1.82 µM in [13]; 2.51 µM (inactive) in [14]; 1.98 µM (inactive) in test [15]; 7.78 µM (inactive) in test [16]; 6.49 µM (inactive) in test [17]; 3.7 µM (inactive) in [18]. For the same compound, the GI50 in [19] was 13.4 µM (inactive).

For `COc1cc(C2c3cc4c(cc3OC(NCCO)C2C)OCO4)cc(OC)c1OC` (configuration not stated), the GI50 in test [1] is 0.807 µM (active); in test [2], > 74.3 µM (inactive); in test [3], 15.9 µM (inactive); in test [4], 0.687 µM (active); in test [5], 0.678 µM (active); in test [6] it was 0.323 µM (active). Besides, the GI50 in [7] was 0.378 µM (active); in [8], 0.326 µM (active); in [9], 0.325 µM (active); in test [10], 0.389 µM (active); in test [11] it was 0.309 µM (active); in test [12] it was 7.48 µM (inactive). The GI50 is 0.347 µM in test [13]; 0.526 µM (active) in test [14]; 0.244 µM (active) in [15]; 1.32 µM (inactive) in test [16]; 3.42 µM (inactive) in test [17]; 0.418 µM (active) in test [18]. Besides, the GI50 in [19] is 0.644 µM (active).

On to `Cc1cc2c(c(S(=O)(=O)c3ccccc3[N+](=O)[O-])c1)NCCC2`, for which the GI50 in test [1] is 50 µM (inactive); in test [2], 6.44 µM (inactive); in test [3], > 100 µM (inactive); in test [4], 95.7 µM (inactive); in test [5] it was 77.1 µM (inactive); in test [6], 18.7 µM (inactive). Besides, the GI50 was 17.8 µM (inactive) in test [7]; > 100 µM (inactive) in [8]; > 100 µM (inactive) in test [9]; 85.3 µM (inactive) in [10]; 26.2 µM (inactive) in [11]; > 100 µM (inactive) in test [12]. Also, the GI50 in [13] is 33.7 µM; in [14] it was > 100 µM (inactive); in [15], 65.2 µM (inactive); in test [16], > 100 µM (inactive); in test [17] it was 51.4 µM (inactive); in test [18], 27.9 µM (inactive). The GI50 in test [19] was > 100 µM (inactive).

Consider `COC(=O)/C(C#N)=C1\NC(=O)CC(c2ccccc2)C1C#N` (configuration not stated), for which the GI50 in test [1], in test [2], in [3], in test [4], in test [5] and in test [6] was > 100 µM (inactive) each time. Further, the GI50 in test [7], in test [8], in [9], in test [10], in [11] and in test [12] was > 100 µM (inactive) in each case. For the same compound, the GI50 is over 100 µM in test [13]; > 100 µM (inactive) in [14]; > 100 µM (inactive) in test [15]; > 100 µM (inactive) in [16]; > 100 µM (inactive) in [17]; > 100 µM (inactive) in test [18]. Also, the GI50 in test [19] is > 100 µM (inactive).

For the compound `NNC(=O)c1nnn(N)c1S`, the GI50 in test [1], in [2], in [3], in [4], in [5] and in test [6] was > 100 µM (inactive) each time. The GI50 in test [7] was > 100 µM (inactive); in test [8] it was > 100 µM (inactive); in test [9], > 100 µM (inactive); in test [10], > 100 µM (inactive); in [11], 1 µM (active); in test [12], > 100 µM (inactive). Further, the GI50 is over 100 µM in test [13]; > 100 µM (inactive) in [14]; > 100 µM (inactive) in [15]; > 100 µM (inactive) in test [17]; > 100 µM (inactive) in test [18]; > 100 µM (inactive) in [19].

For the compound `NCCNCCCCCCNC(=O)c1cccc2cc3ccccc3nc12`, the GI50 in test [1] was 17.9 µM (inactive); in test [2] it was 5.13 µM (inactive); in test [3], 8.51 µM (inactive); in test [4] it was 3.9 µM (inactive); in test [5], 0.632 µM (active); in [6] it was 3.61 µM (inactive). Besides, the GI50 was 2.01 µM (inactive) in [7]; 1.49 µM (inactive) in test [8]; 1.88 µM (inactive) in test [9]; 2.01 µM (inactive) in test [10]; 1.39 µM (inactive) in test [11]; 4.02 µM (inactive) in test [12]. The GI50 was 12.6 µM in test [13]; 2.75 µM (inactive) in test [14]; 2.51 µM (inactive) in [15]; 2.67 µM (inactive) in test [16]; 2.87 µM (inactive) in test [17]; 2.99 µM (inactive) in test [18]. The GI50 in test [19] is 1.95 µM (inactive).

On to `COc1cc2c[n+](C)c3c(c2cc1OC)Cc1cc2c(cc1-3)OCO2`, for which the GI50 in test [1], in test [2], in [3], in test [4], in test [5] and in [6] was > 100 µM (inactive) in each case. Moreover, the GI50 is > 100 µM (inactive) in test [7]; > 100 µM (inactive) in test [8]; > 100 µM (inactive) in test [9]; 65 µM (inactive) in test [10]; > 100 µM (inactive) in test [11]; > 100 µM (inactive) in [12]. Further, the GI50 in [13] was over 100 µM; in test [14], > 100 µM (inactive); in test [15], > 100 µM (inactive); in [16], > 100 µM (inactive); in test [17], > 100 µM (inactive); in test [18] it was > 100 µM (inactive). In test [19], the GI50 was > 100 µM (inactive).
